Measured values from US4444776A, “Dipyrido (4,3-B) (3,4-F) indoles, process for obtaining them, therapeutical use and pharmaceutical compositions” (priority 1977, dated 1984).

Assays:
[1] = test system: L 1210 leukemia; assay: Test 10: comparison of antitumoral activity with known products, L 1210 (Tables V-VII); assay type: in vivo, mouse; details: J+3
Procedure: Test 10: Comparison of the antitumoral activity of the compound according to example 7 with that of known products
The compound of example 7, i.e. 1-(γ-diethylaminopropyl)amino-5-methyl-dipyrido-[4,3-b][3,4-f] indole or known compounds were injected into L 1210 leukemic mice 1 or 3 days after the inoculation of the cells at the doses indicated in tables V to VII and the mean survival time (MST) and the precentage of increased life span (ILS %) were measured.
Indications concerned the known products used in this example and particularly their antitumoral properties, their secondary effects and their use in man may be found in "La Chimiotherapie des Cancers", by G. MATHE and M. KENIS Expansion Scientifique Francaise, 3rd edition, Paris 1975.

[2] = test system: leukemic cells; assay: Test 20: combination of compound 21 with other drugs (Table XV); details: 10^5 cells, BD 40 20 mg/kg day +4, Endoxan 100 mg/kg day +3
Procedure: A priming dose of endoxan (100 mg/kg) was given 3 days after 10^5 leukemic cells (20 mice).

[3] = test system: tumoral strain derived from the murine leukemia due to the C. FRIEND virus; assay: Test 7: antitumoral activity in vitro on Friend leukemia tumoral strain; assay type: cell-based; details: HUM = 1
Procedure: Test 7: Study of the antitumoral activity in vitro
This activity was measured on a tumoral strain derived from the murine leukemia due to the C. FRIEND virus.
The tumoral cells multiply in suspension in a "RPMI 1640" medium (Catalogue of GIBCO Bio-cult. Ltd. Washington Road, Sandyford Industrial Estate, PAISLEY PA 3 4EP, Renfrewshire, Scotland) supplemented with 20% of embryonary calf serum, penicillin and streptomycine. The duplication time of these cells is 11 hours. The growth fraction is equal to 1 or very close to 1 (all the cells are in the cycle). The cultures are sub-culturedat time t=0 at the concentration of 2.10^5 cells per ml in Falcon dishes containing 4 ml of medium. After twenty four hours, the product to be tested was added, i.e. at a moment when the cultures are in exponential phase of growth. Twenty four hours after the addition of the product, the cells are counted and the percentage of living cells determined by an exclusion test using "trypan" blue.

[4] = test system: mice; assay: Test 21: toxicity after intraperitoneal injection; details: for time of deaths after drug administration: IP; for minimal quantity resulting in 100% deaths: ip, 43200 min
Procedure: All drugs were dissolved in aqueous solutions adjusted at pH 5 with acetic acid and inoculated to the mice under a volume of 0.1 ml I.P. after dilution in Mac Coy's medium.
The toxicity of the drugs after intraperitoneal injection was estimated from the mortality rate up to the 30th day.

[5] = test system: L1210 leukemia; assay: Test 16: structure-activity of R'1 substitution, L1210 (Table XII); assay type: in vivo, mouse (C57B16xDBA/2)F1; details: for 60 days surv. / ILS % / Range of death: day +1
Procedure: Test 16: Relationship between structure and activity of various dipyrido indoles differing by the R'1 substitution.
L1210 leukemia has been maintained by weekly passages on (C57B16xDBA/2)F1 mice. On day 0, mice were inoculated by I.P. route with various numbers of L1210 ascitic tumor cells in volumes of 0.1 ml. Subsequently as indicated, drugs were administrated in Ca^++ and Mg^++ free PBS solutions (Gibco) or in Mac Coy's medium (Gibso or Microbiological Associates). […]

[6] = test system: L 1210 leukemia; assay: Test 11: L 1210 leukemic mice, examples 7 and 8 (Table VIII); assay type: in vivo, mouse; design: MTS: unit not given beside the values; details: J+1
Procedure: This test was carried out with 10^3, 10^4 and 10^5 leukemic cells on day J. This test was also carried out with the compound of example 7, i.e. 1-[(γ-diethylaminopropyl)amino]-5-methyl-dipyrido [4,3-b][3,4-f] indole (compound 21).

[7] = test system: Lewis carcinoma (3LL); assay: Test 13: Lewis carcinoma, antimetastasic effect; assay type: in vivo, BDF1 mice
Procedure: "carcinome pulmonaire de Lewis" (3LL), K. SUGIURA and C. C. STOCK," Cancer Res. 1955 15 38-51.
In this test, cells (10^6 cells) removed from a tumour-carrying mouse were injected into mice(BDF1) by the IM route. The mice developed, 10 to 15 days after the inoculation, a tumour at the spot where the injection was made. On the other hand, these cells made metastasis in the lung, forming colonies on the pulmonary surface. The antitumoral and antimetastasic effect of a product may therefore be judged on mice thus treated.
Investigation of the antimetastasic effect of the compounds of examples 7 and 8 of the invention
10^6 cells taken from a tumour-carrying mouse were injected by the IM route (left-band paw) into groups of 10 mice and the compounds to be tested were inoculated by the IP route on day J+5 by single or fractioned injection. The mean survival time (MST) and the increased life span (ILS %) were determined.

[8] = test system: L1210 leukemia; assay: Test 17: length of substituting chain, L1210 (Table XIII); assay type: in vivo, mouse
Procedure: Test 17: Relationship between the length of the substituting chain and the activity.
However compound 21 is less toxic (50 mg/kg for compound 21 and 25 mg/kg for compound 23), it has a higher ILS% than compound 23 and 1 mouse survived up to 60 days.

[9] = Table V, 10^4 cells, doses mg/mouse: example 7 0.2, Thiotepa 0.1, Mitomycine 0.016, BCNU 0.1, Methotrexate 0.250
[10] = Table V, 10^4 cells, mg/mouse: example 7 0.2, Thiotepa 0.1, Mitomycine 0.016, BCNU 0.1, Methotrexate 0.250, Endoxan 4
[11] = Table VI, 10^5 cells, mg/mouse: Thiotepa 0.1, Mitomycine C 0.016, BCNU 0.1, Methotrexate 0.250, example 7 0.2, Endoxan 4
[12] = Table VII, 10^5 cells, example 7 0.2 mg/mouse, ON COVIN 0.5 μg/mouse

## O=NN(CCCl)C(=O)NCCCl [BCNU]
[1]; [9]
  ILS %: 0.9%
  MTS (mean survival time): 11.1
[1]; [10]
  Range of death: 10 to 12 days
[1]; [11]
  ILS %: 0%
  MTS (mean survival time): 8.8
  Range of death: 8-9

## O=P1(N(CCCl)CCCl)NCCCO1 (stereo not shown) [Endoxan]
[2]; BCNU 2 mg/kg
  ILS %: 16.9%
[2]; BCNU 2 mg/kg immediately after endoxan
  Range of death: 11-17
[2]; BCNU 2 mg/kg, control 11.2
  MST: 13.1
[1]; Table V, 10^4 cells, Endoxan 4 mg/mouse
  mice alive on 30th day (of 10): 3
[1]; [10]
  Range of death: 13 days
[1]; [11]
  ILS %: 105.30%
  MTS (mean survival time): 18.6
  Range of death: 15-21

## Cc1c2cc[nH]c(=O)c2cc2c1[nH]c1ccncc12 [Example 5, 1,2-dihydro-1-oxo 5-methyl-dipyrido-[4,3-b][3,4-f] indole]
[3]
  Activity (ratio of the LD50 of HUM to the LD50 of the product tested): 0.15

## Cc1c2ccnc(NCCCN(C)C)c2cc2c1[nH]c1ccncc12 [Example 8, 1-(γ-dimethylaminopropyl)amino-5-methyl-dipyrido-[4,3-b][3,4-f] indole]
[4]
  time of deaths after drug administration: 3 to 5 days
[4]; mouse, in vivo
  minimal quantity resulting in 100% deaths: 50 mg/kg
[5]; 10^4 cells, 2.5 mg/kg
  60 days surv.: 1
  ILS %: 34.9%
  Range of death: 10-19
[5]; 10^5 cells, 5 mg/kg
  60 days surv.: 0
  ILS %: 52.5%
  Range of death: 11-16
[5]; Table XII summary
  antitumoral activity compared with Ellipticinium acetate (HUM): compete favorably with Ellipticinium acetate (HUM)
[6]; 10^3 cells, 0.05 mg/mouse
  ILS %: 34.9%
  Number of surviving mice: 1
[6]; 10^3 cells, 0.1 mg/mouse
  ILS %: 50.5%
  MTS: 16.4
  Number of surviving mice: 3
[6]; 10^4 cells, 0.05 mg/mouse
  ILS %: 34.9%
  Number of surviving mice: 1
[6]; 10^4 cells, 0.1 mg/mouse
  ILS %: 25.7%
  MTS: 13.7
  Number of surviving mice: 3
[6]; 10^5 cells, 0.05 mg/mouse
  ILS %: 28.1%
  MTS: 11.6
[6]; 10^5 cells, 0.1 mg/mouse
  ILS %: 52.5%
  MTS: 13.8
[7]; IP from J+5
  protective action concerning metastasic pulmonary invasion of the lung: give a protective action
[7]; J+5, 5 mg/kg
  ILS %: 9.8%
[7]; J+5, 5 mg/kg, controls 25
  MST: 27.44

## Cc1c2ccnc(NCCN(C)C)c2cc2c1[nH]c1ccncc12 [Example 9, 1-(β-dimethylaminoethyl)amino-5-methyl-dipyrido-[4,3-b][3,4-f] indole]
[8]; Table XIII summary
  activity against L1210 leukemia (in words): active against L1210 leukemia
[8]; day +1
  ILS %: 65.2%
  Survivors up to 60 days: 0
[8]; day +1, control MST 8.8
  MST: 14.6
  Range of death: 11-18
[4]
  time of deaths after drug administration: 4 to 6 days
[4]; mouse, in vivo
  toxicity (toxic dose): 25 mg/kg
  minimal quantity resulting in 100% deaths: 25 mg/kg

## CCN(CC)CCCC(C)Nc1nccc2c(C)c3[nH]c4ccncc4c3cc12 (stereo not drawn) [Example 10, 1-[(α-methyl-σ-diethylamino-butyl)-amino]-5-methyl-dipyrido-[4,3-b][3,4-f] indole]
[8]; day +4
  ILS %: 56.25%
  Survivors up to 60 days: 0
[8]; day +4, control MST 11.2
  MST: 17.5
  Range of death: 12-20
[4]
  time of deaths after drug administration: 4 to 6 days
[4]; mouse, in vivo
  minimal quantity resulting in 100% deaths: 50 mg/kg

## CN(Cc1cnc2nc(N)nc(N)c2n1)c1ccc(C(=O)N[C@@H](CCC(=O)O)C(=O)O)cc1 [Methotrexate]
[1]; [9]
  ILS %: 44.62%
  MTS (mean survival time): 15.9
[1]; [10]
  Range of death: 15 to 17 days
[1]; [11]
  ILS %: 39.35%
  MTS (mean survival time): 12.62
  Range of death: 12-14

## CO[C@@]12[C@H](COC(N)=O)C3=C(C(=O)C(C)=C(N)C3=O)N1C[C@@H]1N[C@@H]12 [Mitomycine C]
[1]; [9]
  ILS %: 4.95%
  MTS (mean survival time): 11.54
[1]; [10]
  Range of death: 10 to 15 days
[1]; [11]
  ILS %: 0%
  MTS (mean survival time): 9.06
  Range of death: 9-10

## CC[C@]1(O)C[C@H]2CN(CCc3c([nH]c4ccccc34)[C@@](C(=O)OC)(c3cc4c(cc3OC)N(C=O)[C@H]3[C@@](O)(C(=O)OC)[C@H](OC(C)=O)[C@]5(CC)C=CCN6CC[C@]43[C@@H]65)C2)C1 [ON COVIN]
[1]; [12]
  ILS %: 3.85%
  MTS (mean survival time): 10.8
  Range of death: 10-13

## S=P(N1CC1)(N1CC1)N1CC1 [Thiotepa]
[1]; [9]
  ILS %: 0%
  MTS (mean survival time): 11
[1]; [10]
  Range of death: 10 to 11 days
[1]; [11]
  ILS %: 1.54%
  MTS (mean survival time): 9.2
  Range of death: 9-10
